Data from publication PMC5312321, “A general strategy to optimize immunogenicity of HLA-B*0702 restricted cryptic peptides from tumor associated antigens: Design of universal neo-antigen like tumor vaccines for HLA-B*0702 positive patients” (Oncotarget, 2016).

Experiments:
[1] = tested on: HLA-B*0702 transgenic mice; assay: Vaccination of HLA-B*0702 transgenic mice; specific CTLs detected by cytotoxicity or IFNγ ELISPOT; assay type: in vivo, mouse; details: for cross recognition of the native peptide by CTLs induced by the optimized peptide in mice (in words): HLA-B*0702 transgenic mice, target cells loaded with native peptide; for Immunogenicity against optimized peptide (responding mice/vaccinated mice) / Immunogenicity against native peptide (responding mice/vaccinated mice): mice vaccinated twice with the optimized peptide; for Immunogenicity against optimized peptide (responding mice/vaccinated mice): cytotoxicity or IFNγ ELISPOT against target cells loaded with the optimized peptide; for Immunogenicity against native peptide (responding mice/vaccinated mice): target cells loaded with the corresponding native peptide; for immunogenicity in HLA-B*0702 transgenic mice (in words): specific CTL induction after vaccination, cytotoxicity (ratio 30/1) or IFNγ ELISpot
Procedure: The HLA-B7 H-2 class-I knockout mice were previously described.
Mice were injected subcutaneously with 100 μg of peptide emulsified in Incomplete Freund's Adjuvant (IFA) in the presence of 150 μg of the I-A^b restricted HBVcore128 T helper epitope ([…]) twice at two weeks interval.
A particular protocol was applied for MAGE-A 274L9, with two injections of this peptide at two weeks interval and 15 days later one injection with each one of the native peptide.
On day 6 of culture the bulk responder populations were tested for specific cytotoxicity. […] Percentage of specific lysis was determined as: % Lysis = (Experimental Release-Spontaneous Release) / (Maximal Release-Spontaneous Release) × 100. Spontaneous release is obtained using medium only, maximum release with HCl 0.1 M.
Seven days after the last vaccination, spleens were removed and T cells were isolated by Ficoll centrifugation and tested ex vivo for the recognition of 10 μM of either the native or optimized peptide. IFNγ producing T cells were quantified by ELISpot using the Diaclone Kit Murine IFNγ ELISpot (Besançon, France) according to manufacturer's recommendations. 250 000 spleen T cells were distributed per well and tested for the recognition of 10 μM of either the native or optimized peptide. Positive control was Concanavalin A and negative control was medium alone. All conditions were tested in sixplicates.

[2] = tested on: CD8+ T cells from healthy donors; assay: In vitro induction of specific CTLs from PBMC of healthy HLA-B*0702 donors (IFNγ intracellular staining or ELISPOT); assay type: cell-based, human; details: for immunogenicity in vitro in human PBMC (in words): CD8+ T cells from healthy donors, four stimulations with peptide loaded autologous DC; for Immunogenicity against optimized peptide (number of positive culture/number of total cultures): human healthy donor PBMC stimulated with optimized peptide loaded DC, T2-B7 cells loaded with optimized peptide; for Immunogenicity against native peptide (number of positive culture/number of total cultures): human healthy donor PBMC stimulated with optimized peptide, T2-B7 cells loaded with corresponding native peptide
Procedure: CD8+ T cells from healthy donors were in vitro stimulated with autologous dendritic cells loaded with each optimized cryptic peptide. After four stimulations, proliferating cells were tested for the presence of IFNγ producing CTLs upon stimulation with T2-B7 cells loaded with optimized or native peptides either by intracellular IFNγ staining or by IFNγ ELISPOT assay.
PBMC were collected by leukapheresis from healthy HLA-A*B702 volunteers. Dendritic cells (DC) were produced from adherent cells cultured with 500 IU/ml GM-CSF and 500 IU/ml IL-4, in complete synthetic medium (AIMV) for seven days. On day 7, DCs were pulsed with 10 μM of peptide during 2 hours and CD8^+ cells were purified by negative selection with CD8 Dynabeads Untouched Human CD8. CD8^+ cells (2 × 10^5) + CD8^− cells (6 × 10^4) were stimulated with 3 × 10^4 peptide-pulsed DC in AIMV medium supplemented with 1000 IU/ml IL-6 and 5 IU/ml IL-12 in round-bottomed 96-well plates.
From day 7, cultures were stimulated weekly with peptide-loaded DC in the presence of 20 IU/ml IL-2 and 10 ng/ml IL-7, 1 μg/ml anti-CD40 and 500 IU/ml IFNγ.
After the third stimulation, CD8 cells were maintained in AIMV supplemented with 20 IU/ml IL-2 during 7 days. Cultures were starved overnight with AIMV and then were tested in an intracellular IFNγ and an IFNγ ELISpot assay.
Stimulated T cells (10^5) from each pool were incubated with 2 × 10^5 T2 cells loaded with stimulating peptide in the presence of 20 μg/ml Brefeldin-A (Sigma, Oakville, Canada). Six hours later they were washed, stained with r-phycoerythrin-conjugated anti-CD8 antibody (Caltag Laboratories, Burlingame, CA, USA) in PBS for 25 min at 4°C, washed again, and fixed with 4% PFA. The cells were then permeabilized with PBS, 0.5% BSA, 0.2% saponin (Sigma, Oakville, Canada), and labelled with an allophycocyanin-conjugated anti-IFNγ mAb (PharMingen, Mississauga, Canada) for 25 min at 4°C before analysis with a FACSCalibur® flow cytometer.
Stimulated T cells were splited in four pools and IFNγ producing T cells was quantified in each pool by ELISpot using the Diaclone Kit Human IFNγ ELISpot (Besançon, France) according to manufacturer's recommendations. 250 000 cells were distributed per well and tested for the recognition of 10 μM of either the native or optimized peptide. Positive control was Concanavalin A and negative control was medium alone or an irrelevant peptide. All conditions were tested in sixplicates.

[3] = molecular target: T1, HLA-B*0702 (Homo sapiens, UniProt P01889); assay: Measurement of peptide relative affinity to HLA-B*0702 (surface expression on T2-B7 cells); assay type: cell-based; details: for RA (Relative Affinity): 37°C 16 hours, peptide 100 μM to 0.1 μM, ME-1 mAb staining, RA = concentration inducing 20% of HLA-B*0702 expression / that of reference R10V, mean ± SD, at least three experiments, ≥ 10 = 10 or not measurable; for binding to / affinity for HLA-B*0702 (in words): relative to reference peptide R10V
T1 construct: expressed in transfected cells; host or cells: human T2-B7 cells (T2 transfected with HLA-B*0702)
Procedure: The protocol used has been described previously. Briefly, T2-B7 cells were incubated at 37°C for 16 hours with peptides concentrations ranging from 100 μM to 0.1 μM (100 μM, 10 μM, 1 μM and 0.1μM), and then stained with ME-1 monoclonal antibody (mAb) to quantify the surface expression of HLA-B*0702. For each peptide concentration, the HLA-B*0702 specific staining was calculated as the percentage of staining obtained with 100 μM of the reference peptide CMV265–274 (R10V; […], SEQ ID NO: 9). The relative affinity (RA) was determined as: RA = (Concentration of each peptide that induces 20% of HLA-B*0702-expression/Concentration of the reference R10V peptide that induces 20% of HLA-B*0702 expression). In case of non-binders peptide, RA is not evaluable since the 20% of HLA-B*0702 expression is not reach even with the highest concentration of peptide.

| Sequence | cross recognition of the native peptide by CTLs induced by the optimized peptide in mice (in words) [1] | Immunogenicity against optimized peptide (responding mice/vaccinated mice) [1] | Immunogenicity against native peptide (responding mice/vaccinated mice) [1] | immunogenicity in HLA-B*0702 transgenic mice (in words) [1] | immunogenicity in vitro in human PBMC (in words) [2] | Immunogenicity against optimized peptide (number of positive culture/number of total cultures) [2] | Immunogenicity against native peptide (number of positive culture/number of total cultures) [2] | RA (Relative Affinity) ([3]; SD) | binding to / affinity for HLA-B*0702 (in words) [3] | (Number of spots – background)/10^6 cells ([1]; IFNγ ELISpot, Figure 3, value printed in the picture, mouse vaccinated twice at two weeks interval, statistically significant (*)) | Immunogenicity against native peptide MAGE-A1_267 (responding mice/vaccinated mice) ([1]; mice vaccinated with optimized peptide, target cells loaded with MAGE-A1_267) | Immunogenicity against native peptide MAGE-A2_274 (responding mice/vaccinated mice) ([1]; mice vaccinated with optimized peptide, target cells loaded with MAGE-A2_274) | Immunogenicity against native peptide MAGE-A3_274 (responding mice/vaccinated mice) ([1]; mice vaccinated with optimized peptide, target cells loaded with MAGE-A3_274) | cross recognition of native peptide by human CTLs induced by the optimized peptide (in words) ([2]; T2-B7 cells loaded with optimized or native peptides, IFNγ staining or ELISPOT) | Immunogenicity against native peptide MAGE-A1_269 (positive culture/total cultures) ([2]; human PBMC stimulated with optimized peptide, targets loaded with MAGE-A1_269 as printed) | Immunogenicity against native peptide MAGE-A2_274 (positive culture/total cultures) ([2]; human PBMC stimulated with optimized peptide, targets loaded with MAGE-A2_274) | Immunogenicity against native peptide MAGE-A3_274 (positive culture/total cultures) ([2]; human PBMC stimulated with optimized peptide, targets loaded with MAGE-A3_274) | RA (Relative Affinity) [3] |
| --- | --- | --- | --- | --- | --- | --- | --- | --- | --- | --- | --- | --- | --- | --- | --- | --- | --- | --- |
| APKHSDCLA [HER2/neu246A1, optimized Her2/neu246 modified at position 1 by an alanine] | able to recognize target cells loaded with their corresponding native peptide | 8/12 | 5/12 | immunogenic | confirmed | 2/4 | 1/4 | – | – | – | – | – | – | – | – | – | – | – |
| APRRLVQLL [TERT444A1, optimized TERT444, alanine at position 1] | – | – | – | – | confirmed | 1/2 | 2/2 | 1.4 ± 0.83 | high HLA-B*0702 affinity | – | – | – | – | – | – | – | – | – |
| GPRALVETL [MAGE-A274 L9, optimized peptide derived from MAGE-A3_274, leucine at position 9] | able to recognize target cells loaded with MAGE-A3_274 but also MAGE-A1_267 and MAGE-A2_274 | 18/18 | – | immunogenic | confirmed | 2/4 | – | – | – | 3023 /10^6 cells | 3/8 | 3/5 | 4/5 | cross recognition of MAGE-A3_274 and MAGE-A2_274 was confirmed but not for MAGE-A1_267 | 0/4 | 2/4 | 2/4 | – |
| SPRLQLSNL [CEA188L9, optimized CEA188 modified at last position by a leucine] | able to recognize target cells loaded with their corresponding native peptide | 6/6 | 6/6 | immunogenic | confirmed | 1/3 | 2/3 | – | – | – | – | – | – | – | – | – | – | – |
| YPEEISSMVL [Hsp70_115, Hsp70 derived native cryptic peptide] | – | – | – | only the high affinity TERT4 was immunogenic | – | – | – | – | low affinity | – | – | – | – | – | – | – | – | ≥ 10 |
| YPVTNAVITV [Hsp70_137, Hsp70 derived native cryptic peptide] | – | – | – | only the high affinity TERT4 was immunogenic | – | – | – | – | low affinity | – | – | – | – | – | – | – | – | ≥ 10 |
